From patent US5204361A, “Method for treating laminitis in equine livestock” (priority 1988, dated 1993)
Like-named read-outs stand apart in the source and are kept apart here.

How the values were obtained:
[1] = system: mixed caecal/large colon digesta; assay: Experiment 2 Part 1: in vitro fermentation of digesta with cornstarch, avoparcin, virginiamycin, flavomycin 2-32 ug/ml; assay type: cell-based, horse; design: Lactate / Total VFA: unit not given here; conditions: for pH / Acet:Prop / Lactate / Total VFA / control of lactic acid build-up: cornstarch 15 mg/ml; for pH / Acet:Prop / Lactate / Total VFA: mean
Method: (§1) Digesta was taken from the caecum and large colon from recently slaughtered animals and was filtered through nylon gauze (approximately 60 micron apertures). The fluid was diluted 1:1 with a buffer solution described by Bales et al. (1976) and incubated with wheat "corn starch" (with or without antibiotics) at 37° for 16 to 20 hours. Aliquots of digesta diluted with buffer (50 ml) were added to 100 ml conical flasks. The flasks were flushed with carbon dioxide before being sealed with a tightly fitting rubber cap. A 21 gauge needle was inserted through the rubber seal in order to allow gas to escape during the fermentation. On removal from the incubator sub-samples were immediately taken to measure L-lactic acid concentration and pH. For each treatment or level of antibiotic three replicate incubation flasks were used.
A range of concentrations of cornstarch providing: 0, 5, 10, 15 and 20 mg/ml diluted digesta (i.e. from 0 to 1 g cornstarch/conical flask) were tested to determine the amount required to produce a pattern of fermentation with high levels of lactic acid. Flasks were also prepared with cornstarch mixed with antibiotic premixes to provide 15 mg cornstarch/ml incubation mixture and 0, 2, 4, 8, 16 and 32 ug of avoparcin, virginiamycin or flavomycin per ml incubation mixture. After approximately 16 hour incubation at 37° samples were taken to measure lactic acid, VFA and pH.

[2] = system: caecal/large colon digesta; assay: Experiment 2 Part 2: in vitro fermentation with cornstarch, antibiotics at or below 2 ug/ml; assay type: cell-based, horse; conditions: cornstarch 0.75 g per flask, 16 hours, mean
Method: as §1
Incubation flasks were set up as described above with cornstarch (0.75 g) containing virginiamycin, flavomycin or zinc-bacitracin a levels to provide: 0, 0.25, 0.5, 1.0 and 2 ug antibiotic/ml incubation mixture. These flasks were incubated for 16 hours. Flasks were also set up with 0.75 g cornstarch and no antibiotic equipped with a tap and sampling tube in order to take samples from the incubation vessels at various times during the fermentation. Samples were taken at the start of the incubation and at 2, 4, 6, 8, 12 and 24 h. These were analysed for L-lactate concentration and pH.

[3] = system: caecal and large colon contents; assay: Experiment 2 Part 3: in vitro screening at 2 ug/ml in digesta of four horses; assay type: cell-based, horse; conditions: 2 ug antibiotic/ml, 15 mg cornstarch/ml, 20 hour incubation
Method: as §1
All four of the antibiotics, listed above, were incubated as previously described to provide 2 ug antibiotic and 15 mg cornstarch per ml incubation mixture. There was one flask per test and each antibiotic was incubated in digesta from both the caecum and the large colon taken from each of 4 animals. Samples of incubation fluid were taken following a 20 hour incubation and were analysed for L-lactate and pH.

[4] = system: cattle; conditions: Nagaraja et al. (1981); cited from earlier work
[5] = system: sheep; conditions: cited from earlier work
[6] = system: horses dosed with 15 g wheat/kg liveweight; conditions: for D-lactic acid, caecum / D-lactic acid, large colon / L-lactic acid, large colon / Lameness (Obel grade): avoparcin 120 mg/kg wheat; for D-lactic acid, caecum / D-lactic acid, large colon / L-lactic acid, large colon: 24 hours after wheat; for Lameness (Obel grade): within 24 hours of wheat
Method: Four horses were dosed with 15 g wheat/kg liveweight. The wheat given to two of the animals contained 120 mg avoparcin/kg wheat, and the other two animals received the wheat without medication. Animals were examined prior to dosing and at intervals of eight hours after the dosing for a period of 24 hours. At these times temperature and heart rate were measured, and a sample of venous blood was taken for the measurement of pH, blood gases, bicarbonate, D-lactate and L-lactate. Animals were also examined for any signs of lameness according to the criteria of Obel (1948) as summarized by Garner et al (1977). After 24 hours all animals were slaughtered and samples of digesta were taken from the caecum and large colon for analysis of lactic acid, VFA and avoparcin concentration.

[7] = system: caecal/large colon digesta; assay: Experiment 2 Part 5: efficacy of tylosin relative to virginiamycin, digesta incubated with glucose; assay type: cell-based, horse; conditions: for L-lactate: digesta incubated with glucose, 37°, 20 hours, mean
Method: An in vitro fermentation experiment was conducted to determine the efficacy of tylosin relative to virginiamycin. Samples of strained caecal and large colon digesta (16 ml) were incubated with glucose solution (60 ug/ml) (4 ml) and varying concentrations of either tylosin or virginiamycin representing […], 2.0, 4.0 ug of tylosin or virginiamycin per ml. The 25 ml containers were incubated at 37° for 20 hours. There were three replicates per treatment.

[8] = system: caecal/large colon digesta; assay: as above; assay type: cell-based, horse; conditions: antibiotic 1.00 μg/ml, 37°, 20 hours, mean
[9] = system: horses; conditions: cited from earlier work
[10] = antibiotic 2 μg/ml, approx 16 hour incubation at 37°
[11] = antibiotic 2 μg/ml, approx 16 hour incubation
[12] = antibiotic 4 μg/ml, approx 16 hour incubation
[13] = antibiotic 8 μg/ml, approx 16 hour incubation
[14] = antibiotic 16 μg/ml, approx 16 hour incubation
[15] = antibiotic 32 μg/ml, approx 16 hour incubation
[16] = Horse 1, mean of caecum and large colon
[17] = Horse 2, mean of caecum and large colon
[18] = Horse 3, mean of caecum and large colon
[19] = Horse 4, mean of caecum and large colon

flavomycin (bambermycin)
pH [1, 10]: 6.57 | Acet:Prop [1, 11]: 3.4 | Lactate [1, 11]: 0.0 | Total VFA [1, 11]: 88.9 | Acet:Prop [1, 12]: 4.6 | Lactate [1, 12]: 0.0 | Total VFA [1, 12]: 93.7 | pH [1, 12]: 6.52 | Acet:Prop [1, 13]: 5.7 | Lactate [1, 13]: 0.0 | Total VFA [1, 13]: 90.0 | pH [1, 13]: 6.48 | Acet:Prop [1, 14]: 5.8 | Lactate [1, 14]: 0.0 | Total VFA [1, 14]: 85.6 | pH [1, 14]: 6.47 | Acet:Prop [1, 15]: 5.8 | Lactate [1, 15]: 0.2 | Total VFA [1, 15]: 93.7 | pH [1, 15]: 6.41 | control of lactic acid build-up ([1]; at concentrations as low as 2 g/ml): total control | L-lactate ([2]; antibiotic 0.25 μg/ml): 12.4 mmol/L | pH ([2]; antibiotic 0.25 μg/ml): 5.69 | L-lactate ([2]; antibiotic 0.50 μg/ml): 7.3 mmol/L | pH ([2]; antibiotic 0.50 μg/ml): 5.67 | L-lactate ([2]; antibiotic 1.00 μg/ml): 9.9 mmol/L | pH ([2]; antibiotic 1.00 μg/ml): 5.67 | L-lactate ([2]; antibiotic 2.00 μg/ml): 11.7 mmol/L | pH ([2]; antibiotic 2.00 μg/ml): 5.56 | pH ([3]; Horse 1): 4.88 | L-lactate [3, 16]: 31.8 mmol/L | pH ([3]; Horse 2): 4.54 | L-lactate [3, 17]: 55.6 mmol/L | pH ([3]; Horse 3): 4.98 | L-lactate [3, 18]: 17.9 mmol/L | pH ([3]; Horse 4): 5.07 | L-lactate [3, 19]: 23.7 mmol/L | L-lactate ([3]; Mean of 4 horses): 32.2 mmol/L | pH ([3]; Mean of 4 horses): 4.86

CC[C@@H](C(=O)[C@@H](C)[C@@H](O)[C@H](C)CCc1ccc(C)c(O)c1C(=O)O)[C@H]1O[C@](CC)([C@H]2CC[C@](O)(CC)[C@H](C)O2)C[C@@H]1C [lasalocid]
control of lactic acidosis [4]: lactic acidosis could be controlled

thiopeptin
control of wheat-induced acidosis ([5]; sheep, Muir et al (1980)): control of wheat-induced acidosis

avoparcin
pH [1, 10]: 6.14 | Acet:Prop [1, 11]: 2.9 | Lactate [1, 11]: 8.9 | Total VFA [1, 11]: 102.6 | Acet:Prop [1, 12]: 2.8 | Lactate [1, 12]: 12.0 | Total VFA [1, 12]: 100.9 | pH [1, 12]: 6.17 | Acet:Prop [1, 13]: 3.3 | Lactate [1, 13]: 11.0 | Total VFA [1, 13]: 82.1 | pH [1, 13]: 6.33 | Acet:Prop [1, 14]: 3.5 | Lactate [1, 14]: 10.3 | Total VFA [1, 14]: 87.1 | pH [1, 14]: 6.40 | Acet:Prop [1, 15]: 3.6 | Lactate [1, 15]: 15.1 | Total VFA [1, 15]: 89.8 | pH [1, 15]: 6.43 | control of lactic acid build-up ([1]; even at 32 µg/ml): only partially controlled | control of lactic acid ([1]; even at the highest concentrations (approx 32 times the minimum effective dose of virginiamycin)): failed to completely control lactic acid | pH ([3]; Horse 1): 5.12 | L-lactate [3, 16]: 19.8 mmol/L | pH ([3]; Horse 2): 4.57 | L-lactate [3, 17]: 67.9 mmol/L | pH ([3]; Horse 3): 4.75 | L-lactate [3, 18]: 34.5 mmol/L | pH ([3]; Horse 4): 5.15 | L-lactate [3, 19]: 20.0 mmol/L | L-lactate ([3]; Mean of 4 horses): 35.5 mmol/L | pH ([3]; Mean of 4 horses): 4.90 | Lactic acid concentrations, large colon digesta versus caecal contents ([6]; animals given avoparcin): appreciably lower in the large colon digesta | D-lactic acid, caecum ([6]; horse 2): 33 mmol/L | D-lactic acid, large colon ([6]; horse 2): 2 mmol/L | L-lactic acid, large colon ([6]; horse 2): 2 mmol/L | Lameness (Obel grade) ([6]; horse 2): Obel 2 | D-lactic acid, caecum ([6]; horse 4): 34 mmol/L | D-lactic acid, large colon ([6]; horse 4): 11 mmol/L | L-lactic acid, large colon ([6]; horse 4): 10 mmol/L | Lameness (Obel grade) ([6]; horse 4): Obel 2 | concentrations of the antibiotic, caecum versus large colon ([6]; in vivo): lower in the caecum than in the large colon | Lactic acid accumulation in the hind-gut and lameness ([6]; wheat slurry with and without avoparcin): developed irrespective of the presence of avoparcin | control of lactic acid ([5]; sheep dosed with round wheat, Aitchison et al. (1986)): particularly effective

CC[C@H]1OC(=O)C[C@@H](O)[C@H](C)[C@@H](O[C@@H]2O[C@H](C)[C@@H](O[C@H]3C[C@@](C)(O)[C@@H](O)[C@H](C)O3)[C@H](N(C)C)[C@H]2O)[C@@H](CC=O)C[C@@H](C)C(=O)/C=C/C(C)=C/[C@@H]1CO[C@@H]1O[C@H](C)[C@@H](O)[C@@H](OC)[C@H]1OC [Tylosin, tylosin]
L-lactate ([7]; antibiotic 0.50 μg/ml): 122 mmol/L | L-lactate ([7]; antibiotic 2.00 μg/ml): 38.7 mmol/L | L-lactate ([7]; antibiotic 4.00 μg/ml): 11.7 mmol/L | reduction in lactic acid levels compared with virginiamycin ([7]; at the concentrations used (0.5-4 ug/ml)): did not cause the same reduction | concentration of lactic acid during the fermentation of soluble carbohydrate ([7]; higher levels of tylosin than virginiamycin required for similar reduction): can reduce the concentration of lactic acid | L-lactate [8]: 45.1 mmol/L

bacitracin zinc [Zn-bacitracin]
L-lactate ([2]; antibiotic 0.25 μg/ml): 20.6 mmol/L | pH ([2]; antibiotic 0.25 μg/ml): 5.64 | L-lactate ([2]; antibiotic 0.50 μg/ml): 17.8 mmol/L | pH ([2]; antibiotic 0.50 μg/ml): 5.86 | L-lactate ([2]; antibiotic 1.00 μg/ml): 15.9 mmol/L | pH ([2]; antibiotic 1.00 μg/ml): 5.68 | L-lactate ([2]; antibiotic 2.00 μg/ml): 14.7 mmol/L | pH ([2]; antibiotic 2.00 μg/ml): 5.59 | pH ([3]; Horse 1): 4.91 | L-lactate [3, 16]: 26.8 mmol/L | pH ([3]; Horse 2): 4.59 | L-lactate [3, 17]: 62.5 mmol/L | pH ([3]; Horse 3): 4.76 | L-lactate [3, 18]: 35.1 mmol/L | pH ([3]; Horse 4): 5.11 | L-lactate [3, 19]: 22.2 mmol/L | L-lactate ([3]; Mean of 4 horses): 36.6 mmol/L | pH ([3]; Mean of 4 horses): 4.84

CC[C@@]1([C@@H]2O[C@@H]([C@H]3O[C@@](O)(CO)[C@H](C)C[C@@H]3C)C[C@@H]2C)CC[C@H]([C@]2(C)CC[C@]3(C[C@H](O)[C@@H](C)[C@@H]([C@@H](C)[C@@H](OC)[C@H](C)C(=O)O)O3)O2)O1 [monensin]
control of lactic acidosis [4]: lactic acidosis could be controlled | toxicity on the host [9]: highly toxic
